Data published in patent publication US10398781B2, “Conjugate based systems for controlled drug delivery” (SmartCells, Inc., priority 2009, dated 2019).

Tests used:
[1] = test system: blood glucose; test: Glucose lowering after i.v. injection in minipigs with and without a-MM infusion; type: in vivo, non-diabetic male Yucatan minipigs; conditions: 0.1 U/kg i.v.; for overall bioactivity (glucose lowering): minipigs
[2] = Accelerated stability testing (AST) aggregation assay; type: physicochemical; conditions: PBS buffer
[3] = test system: blood glucose; test: Blood glucose depression profile after subcutaneous injection; type: in vivo, fasted normal non-diabetic rats (Male Sprague-Dawley); conditions: sub-Q
[4] = test system: serum insulin and blood glucose levels; test: Effect of IP exogenous saccharide 15 minutes after sub-Q conjugate on PK/PD profile; type: in vivo, fasted normal non-diabetic rats (Male Sprague-Dawley)
[5] = test system: serum insulin and blood glucose levels; test: Effect of a-MM co-injected at the local sub-Q injection site; type: in vivo, non-diabetic, male SD rats; conditions: 5 U/kg sub-Q
Procedure: In view of the data described in Example 42, we set out to determine whether the alpha-methyl mannose (a-MM) induced increase in serum conjugate concentration and bioactivity was a result of an increased rate of absorption from the subcutaneous injection site. The high affinity TSAT-C6-AETM-2 conjugate I-2 was used for this experiment. First, the conjugate was diluted to a concentration of 5 U/ml (0.2 mg/ml insulin equivalent) using either a buffered saline solution or a buffered saline solution containing 1 M a-MM. Each solution was injected sub-Q at a dose of 5 U/kg into the back of the neck of each of three non-diabetic, male SD rats at time 0 and blood samples were collected via tail vein bleeding at 0 minutes and at 15, 30, 45, 60, 90, 120, 150, 180, 240, and 300 minutes after injection. […] In this experiment, rats that received the a-MM conjugate solution also received an injection of buffered saline solution sub-Q at a separate hind quarter injection site at 15 minutes. Rats that received the saline conjugate solution also received an injection of a-MM solution sub-Q at a separate hind quarter injection site at 15 minutes.

[6] = Sugar-dependent i.v. elimination half-life in minipigs; type: in vivo, non-diabetic, male miniature swine (Yucatan strain); conditions: pigs, 0.1 U/kg i.v.
[7] = test system: blood glucose; test: Sub-Q injection in non-diabetic and alloxan-diabetic minipigs; type: in vivo, Yucatan minipigs
[8] = 0.25 ml of 20 U equivalent insulin/ml
[9] = sub-Q, II-2 0.25, 0.50, 1.00 U/kg, RHI 0.063 and 0.125 U/kg

Substance: I-12: human insulin conjugated at A1 to TSAT-C6 framework with two AETM ligands
- overall bioactivity (glucose lowering) [1]: slightly more effective in lowering glucose than conjugate I-6

Substance: I-16: human insulin conjugated at B1 to TSPE framework with three AEM ligands
- AST aggregation stability compared with RHI [2]: greatly enhanced stability over pharmaceutical grade RHI

Substance: insulin-glycogen: comparative insulin-oyster glycogen (Type II) conjugate per U.S. Patent Application Publication No. 20070099820
- glucose depression profile / glucose lowering response ([3]; 2.5-5 U/kg): lower glucose levels much more rapidly and to a greater extent

Substance: insulin-dextran: comparative insulin-dextran (MW~70K) conjugate made by CNBr coupling per U.S. Patent Publication No. 20040202719
- duration of serum glucose depression post injection [3, 8]: at least five hours
- time to reach the glucose nadir (Tnadir) [3, 8]: about 3 hours

Substance: I-2: human insulin conjugated at B1 to TSAT-C6 framework with two AETM ligands
- effect of IP L-fucose on serum insulin profile ([4]; L-fucose IP 15 minutes after sub-Q injection): alpha-methyl mannose and L-fucose appear to exhibit the same kind of effect
- change in PK/PD profile from IP injection of alpha-methyl mannose vs. saline ([4]; a-MM IP 15 minutes after sub-Q injection): very significant (p<0.05)
- effect of IP galactose on serum insulin profile ([4]; galactose IP 15 minutes after sub-Q injection): no effect as compared to saline
- effect of IP glucose on serum insulin profile ([4]; glucose IP 15 minutes after sub-Q injection): small effect
- serum insulin and blood glucose with 1M a-MM co-injected vs. buffered saline [5]: the serum insulin levels do not increase and the blood glucose levels do not decrease

Substance: II-2: A1,B29-disubstituted insulin, TSAT-C6 frameworks, four AETM ligands
- increase in t1/2 in the presence of a-MM [6]: ~10 fold
- area over the glucose lowering curve in the presence of a-MM vs. absence of sugar [1]: approximately 2.6 ×
- a-MM induced bioactivity ([1]; a-MM infusion 25% w/v 80 ml/h): increased the a-MM induced bioactivity
- overall bioactivity (glucose lowering) [1]: reduced overall bioactivity
- duration of hypoglycemia-free glucose control in diabetic minipigs ([7]; single injection of approximately 0.5 U/kg): 6 to 8 h
- blood glucose in alloxan-diabetic, hyperglycemic minipigs [7, 9]: significant dose-dependent reduction in blood glucose levels
- hypoglycemia / glucose-lowering in non-diabetic minipigs [7, 9]: absolutely no hypoglycemia or signs of glucose-lowering
